Laboratory results taken from PubChem BioAssay AID1745844 (Carcinogenic Potency Database (CPDB), 2022).
Activity calls are given as the source filed them. No rule for the calls is given here.

Test system: rodent lifetime carcinogenesis bioassay, tumor incidence TD50
Experiment: chronic cancer bioassays in animals – CPDB, compiled studies (AID 1745844)

SMILES: CC[C@H]1OC(=O)C[C@@H](O)[C@H](C)[C@@H](O[C@@H]2O[C@H](C)[C@@H](O[C@H]3C[C@@](C)(O)[C@@H](O)[C@H](C)O3)[C@H](N(C)C)[C@H]2O)[C@@H](CC=O)C[C@@H](C)C(=O)/C=C/C(C)=C/C1CO[C@@H]1O[C@H](C)[C@@H](O)[C@@H](OC)[C@H]1OC (some centres not stated)
- carcinogen call (mouse, strain C57BL/6, females, in feed, site: liver, lesion: one or several types, types not named, dosed 52 weeks, study length 52 weeks): negative (inactive)
- carcinogen call (mouse, strain C57BL/6, females, in feed, site: lung, lesion: one or several types, types not named, dosed 52 weeks, study length 52 weeks): negative (inactive)
- carcinogen call (mouse, strain C57BL/6, males, in feed, site: liver, lesion: one or several types, types not named, dosed 52 weeks, study length 52 weeks): negative (inactive)
- carcinogen call (mouse, strain C57BL/6, males, in feed, site: lung, lesion: one or several types, types not named, dosed 52 weeks, study length 52 weeks): negative (inactive)

SMILES: CCCCCCC(=O)C/C=C/CCCCCCCC(=O)OC
- TD50 (mouse, strain ST/a, both sexes, in feed, site: all sites, lesion: malignant lymphoma, dosed 42 weeks, study length 84 weeks): 2940 mg/kg/day (inactive)

SMILES: CCCc1c(OCCCCc2nn[nH]n2)ccc(C(C)=O)c1O
- TD50 (mouse, strain B6C3F1, females, in feed, site: liver, lesion: hepatocellular adenoma, dosed 104 weeks, study length 104 weeks): 369 mg/kg/day
- TD50 (mouse, strain B6C3F1, females, in feed, site: liver, lesion: hepatocellular carcinoma, dosed 104 weeks, study length 104 weeks): 112 mg/kg/day
- TD50 (mouse, strain B6C3F1, males, in feed, site: liver, lesion: hepatocellular adenoma, dosed 104 weeks, study length 104 weeks): 2740 mg/kg/day
- TD50 (mouse, strain B6C3F1, males, in feed, site: liver, lesion: hepatocellular carcinoma, dosed 104 weeks, study length 104 weeks): 426 mg/kg/day

SMILES: OCN(CO)c1nc(N(CO)CO)nc(N(CO)CO)n1
- TD50 (rat, strain Sprague-Dawley, females, in feed, site: any site (literature study), lesion: several types, types named in the paper, dosed 44 weeks, study length 66 weeks): 6.82 mg/kg/day
- TD50 (rat, strain Sprague-Dawley, females, in feed, site: kidney/pelvis, lesion: transitional-cell carcinoma, dosed 44 weeks, study length 66 weeks): 33.6 mg/kg/day
- TD50 (rat, strain Sprague-Dawley, females, in feed, site: mammary gland, lesion: adenocarcinoma, dosed 44 weeks, study length 66 weeks): 10.2 mg/kg/day
- TD50 (rat, strain Sprague-Dawley, females, in feed, site: mammary gland, lesion: several types, types named in the paper, dosed 44 weeks, study length 66 weeks): 11.9 mg/kg/day

SMILES: OC[C@H]1O[C@@H]2O[C@H]3[C@H](O)[C@@H](O)[C@@H](O[C@H]4[C@H](O)[C@@H](O)[C@@H](O[C@H]5[C@H](O)[C@@H](O)[C@@H](O[C@H]6[C@H](O)[C@@H](O)[C@@H](O[C@H]7[C@H](O)[C@@H](O)[C@@H](O[C@H]8[C@H](O)[C@@H](O)[C@@H](O[C@H]1[C@H](O)[C@H]2O)O[C@@H]8CO)O[C@@H]7CO)O[C@@H]6CO)O[C@@H]5CO)O[C@@H]4CO)O[C@@H]3CO
- carcinogen call (mouse, strain Charles River CD1, females, in feed, site: lung, lesion: several types, types named in the paper, dosed 104 weeks, study length 104 weeks): negative (inactive)
- TD50 (mouse, strain Charles River CD1, males, in feed, site: lung, lesion: several types, types named in the paper, dosed 93 weeks, study length 93 weeks): 728 mg/kg/day (inactive)
- carcinogen call (rat, strain Charles River CD (Sprague-Dawley), females, in feed, site: liver, lesion: one or several types, types not named, dosed 52 weeks, study length 52 weeks): negative (inactive)
- carcinogen call (rat, strain Charles River CD (Sprague-Dawley), males, in feed, site: liver, lesion: one or several types, types not named, dosed 52 weeks, study length 52 weeks): negative (inactive)
- TD50 (rat, strain F344/DuCrj, females, in feed, site: any site (literature study), lesion: several types, types named in the paper, dosed 104 weeks, study length 109 weeks): 85900 mg/kg/day (inactive)
- carcinogen call (rat, strain F344/DuCrj, females, in feed, site: liver, lesion: hepatocellular adenoma, dosed 104 weeks, study length 109 weeks): negative (inactive)
- carcinogen call (rat, strain F344/DuCrj, males, in feed, site: any site (literature study), lesion: several types, types named in the paper, dosed 104 weeks, study length 109 weeks): negative (inactive)
- carcinogen call (rat, strain F344/DuCrj, males, in feed, site: liver, lesion: hepatocellular adenoma, dosed 104 weeks, study length 109 weeks): negative (inactive)
- TD50 (rat, strain Fischer 344, females, in feed, site: uterus, lesion: adenocarcinoma, dosed 129 weeks, study length 129 weeks): 22700 mg/kg/day (inactive)
- TD50 (rat, strain Fischer 344, males, in feed, site: testis, lesion: interstitial-cell tumor, dosed 122 weeks, study length 122 weeks): 157 mg/kg/day (inactive)

SMILES: CCNC(=O)N(C=O)CCN(C)C
- TD50 (rat, strain Fischer 344, females, by gavage, site: cervix, lesion: adenocarcinoma, dosed 37 weeks, study length 102 weeks): 5.35 mg/kg/day
- TD50 (rat, strain Fischer 344, females, by gavage, site: lung, lesion: one or several types, types not named, dosed 37 weeks, study length 102 weeks): 5.35 mg/kg/day
- TD50 (rat, strain Fischer 344, females, by gavage, site: mammary gland, lesion: adenocarcinoma, dosed 37 weeks, study length 102 weeks): 3.39 mg/kg/day
- TD50 (rat, strain Fischer 344, females, by gavage, site: mammary gland, lesion: adenoma, dosed 37 weeks, study length 102 weeks): 11.2 mg/kg/day
- TD50 (rat, strain Fischer 344, females, by gavage, site: mammary gland, lesion: fibroadenoma, dosed 37 weeks, study length 102 weeks): 0.704 mg/kg/day
- TD50 (rat, strain Fischer 344, females, by gavage, site: uterus, lesion: adenoma, dosed 37 weeks, study length 102 weeks): 11.2 mg/kg/day
- TD50 (rat, strain Fischer 344, females, by gavage, site: uterus, lesion: endometrial polyp, dosed 37 weeks, study length 102 weeks): 1.41 mg/kg/day
- TD50 (rat, strain Fischer 344, males, by gavage, site: lung, lesion: one or several types, types not named, dosed 37 weeks, study length 102 weeks): 2.37 mg/kg/day
- TD50 (rat, strain Fischer 344, males, by gavage, site: skin, lesion: keratoacanthoma, dosed 37 weeks, study length 102 weeks): 1.92 mg/kg/day
